In ChEMBL document CHEMBL1201862, “PubChem BioAssay data set” (2004):
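A five-concentration, 48-hour dose response in 96-well plates underlies each endpoint, interpolated linearly between surrounding concentrations. Abbreviation: GI50, concentration required for 50% inhibition of growth.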 Activity calls are given as the source filed them. No stated cut-off is given here; in the data, active = GI50 up to about 1.1 µM and inactive = higher.

Legend:
Experiment in all cases: NCI tumour cell line growth inhibition, 48 h
786-0 = tested on: 786-0
A498 = tested on: A498
A549 = tested on: A549
ACHN = tested on: ACHN
BT-549 = tested on: BT-549
CAKI-1 = tested on: CAKI-1
CCRF-CEM = tested on: CCRF-CEM
COLO 205 = tested on: COLO 205
DU-145 = tested on: DU-145
EKVX = tested on: EKVX
HCC 2998 = tested on: HCC 2998
HCT-116 = tested on: HCT-116
HCT-15 = tested on: HCT-15
HL-60 = tested on: HL-60
HOP-62 = tested on: HOP-62
HOP-92 = tested on: HOP-92
HT-29 = tested on: HT-29
Hs-578T = tested on: Hs-578T
IGROV-1 = tested on: IGROV-1
K562 = tested on: K562
KM12 = tested on: KM12
LOX IMVI = tested on: LOX IMVI
M14 = tested on: M14
MCF7 = tested on: MCF7
MDA-MB-231 = tested on: MDA-MB-231
MDA-MB-435 = tested on: MDA-MB-435
MDA-N = tested on: MDA-N
MOLT-4 = tested on: MOLT-4
Malme-3M = tested on: Malme-3M
NCI-H226 = tested on: NCI-H226
NCI-H23 = tested on: NCI-H23
NCI-H460 = tested on: NCI-H460
NCI-H522 = tested on: NCI-H522
NCI/ADR-RES = tested on: NCI/ADR-RES
OVCAR-3 = tested on: OVCAR-3
OVCAR-4 = tested on: OVCAR-4
OVCAR-5 = tested on: OVCAR-5
OVCAR-8 = tested on: OVCAR-8
PC-3 = tested on: PC-3
RPMI-8226 = tested on: RPMI-8226
RXF 393 = tested on: RXF 393
SF-268 = tested on: SF-268
SF-295 = tested on: SF-295
SF-539 = tested on: SF-539
SK-MEL-28 = tested on: SK-MEL-28
SK-MEL-2 = tested on: SK-MEL-2
SK-MEL-5 = tested on: SK-MEL-5
SK-OV-3 = tested on: SK-OV-3
SN12C = tested on: SN12C
SNB-19 = tested on: SNB-19
SNB-75 = tested on: SNB-75
SR = tested on: SR
SW-620 = tested on: SW-620
T47D = tested on: T47D
TK-10 = tested on: TK-10
U-251 = tested on: U-251
UACC-257 = tested on: UACC-257
UACC-62 = tested on: UACC-62
UO-31 = tested on: UO-31

## CC(=O)Nc1ccc2c3c(cc(O)c2c1)N(C(=O)CCCCCCC(=O)Nc1ccc2c4c(cc(O)c2c1)N(C(=O)OC(C)(C)C)CC4CCl)CC3CCl (stereo unspecified)
786-0
  GI50: 0.0757 µM (active)
A498
  GI50: 0.0244 µM (active)
A549
  GI50: 0.195 µM (active)
ACHN
  GI50: 0.0484 µM (active)
BT-549
  GI50: 0.146 µM (active)
CAKI-1
  GI50: 1.02 µM (active)
CCRF-CEM
  GI50: < 0.01 µM (active)
COLO 205
  GI50: 0.103 µM (active)
DU-145
  GI50: 0.0211 µM (active)
EKVX
  GI50: 0.304 µM (active)
HCC 2998
  GI50: 0.0502 µM (active)
HCT-116
  GI50: 0.0408 µM (active)
HCT-15
  GI50: 2.64 µM
HL-60
  GI50: < 0.0108 µM (active)
HOP-62
  GI50: 0.091 µM (active)
HOP-92
  GI50: 0.158 µM (active)
HT-29
  GI50: 0.155 µM (active)
Hs-578T
  GI50: 0.264 µM (active)
IGROV-1
  GI50: 0.0822 µM (active)
K562
  GI50: 0.117 µM (active)
KM12
  GI50: 0.169 µM (active)
LOX IMVI
  GI50: 0.0391 µM (active)
M14
  GI50: 0.0791 µM (active)
MCF7
  GI50: < 0.01 µM (active)
MDA-MB-231
  GI50: 0.319 µM (active)
MDA-MB-435
  GI50: 0.132 µM (active)
MDA-N
  GI50: 0.134 µM (active)
MOLT-4
  GI50: < 0.01 µM (active)
Malme-3M
  GI50: 0.083 µM (active)
NCI-H226
  GI50: 0.144 µM (active)
NCI-H23
  GI50: 0.0337 µM (active)
NCI-H460
  GI50: 0.0233 µM (active)
NCI-H522
  GI50: 0.0387 µM (active)
NCI/ADR-RES
  GI50: > 35.4 µM (inactive)
OVCAR-3
  GI50: 0.045 µM (active)
OVCAR-4
  GI50: 0.218 µM (active)
OVCAR-5
  GI50: 0.109 µM (active)
OVCAR-8
  GI50: 0.0973 µM (active)
PC-3
  GI50: 0.105 µM (active)
RPMI-8226
  GI50: 0.0877 µM (active)
RXF 393
  GI50: 0.016 µM (active)
SF-268
  GI50: 0.0291 µM (active)
SF-295
  GI50: 0.0776 µM (active)
SF-539
  GI50: 0.0637 µM (active)
SK-MEL-28
  GI50: 0.279 µM (active)
SK-MEL-2
  GI50: 0.0423 µM (active)
SK-MEL-5
  GI50: 0.0217 µM (active)
SK-OV-3
  GI50: 0.0705 µM (active)
SN12C
  GI50: 0.13 µM (active)
SNB-19
  GI50: 0.046 µM (active)
SNB-75
  GI50: 0.0776 µM (active)
SR
  GI50: < 0.01 µM (active)
SW-620
  GI50: 0.0968 µM (active)
T47D
  GI50: 0.0573 µM (active)
TK-10
  GI50: 0.344 µM (active)
U-251
  GI50: 0.0205 µM (active)
UACC-257
  GI50: 0.148 µM (active)
UACC-62
  GI50: 0.0695 µM (active)
UO-31
  GI50: 1.04 µM (active)

## CN(/N=C(\C(=O)O)c1ccccc1)C1=NCCCN1
786-0
  GI50: > 100 µM (inactive)
A498
  GI50: > 100 µM (inactive)
A549
  GI50: > 100 µM (inactive)
ACHN
  GI50: > 100 µM (inactive)
BT-549
  GI50: > 100 µM (inactive)
CAKI-1
  GI50: > 100 µM (inactive)
CCRF-CEM
  GI50: > 100 µM (inactive)
COLO 205
  GI50: > 100 µM (inactive)
DU-145
  GI50: > 100 µM (inactive)
EKVX
  GI50: 73.3 µM (inactive)
HCC 2998
  GI50: > 100 µM (inactive)
HCT-116
  GI50: > 100 µM (inactive)
HCT-15
  GI50: > 100 µM
HL-60
  GI50: > 100 µM (inactive)
HOP-62
  GI50: > 100 µM (inactive)
HOP-92
  GI50: 80.9 µM (inactive)
HT-29
  GI50: > 100 µM (inactive)
Hs-578T
  GI50: > 100 µM (inactive)
IGROV-1
  GI50: > 100 µM (inactive)
K562
  GI50: > 100 µM (inactive)
KM12
  GI50: > 100 µM (inactive)
LOX IMVI
  GI50: > 100 µM (inactive)
MCF7
  GI50: > 100 µM (inactive)
MDA-MB-231
  GI50: > 100 µM (inactive)
MDA-MB-435
  GI50: > 100 µM (inactive)
MDA-N
  GI50: > 100 µM (inactive)
MOLT-4
  GI50: > 100 µM (inactive)
Malme-3M
  GI50: > 100 µM (inactive)
NCI-H226
  GI50: > 100 µM (inactive)
NCI-H23
  GI50: > 100 µM (inactive)
NCI-H460
  GI50: > 100 µM (inactive)
NCI-H522
  GI50: > 100 µM (inactive)
NCI/ADR-RES
  GI50: > 100 µM (inactive)
OVCAR-3
  GI50: > 100 µM (inactive)
OVCAR-4
  GI50: > 100 µM (inactive)
OVCAR-5
  GI50: > 100 µM (inactive)
OVCAR-8
  GI50: > 100 µM (inactive)
PC-3
  GI50: > 100 µM (inactive)
RPMI-8226
  GI50: > 100 µM (inactive)
RXF 393
  GI50: > 100 µM (inactive)
SF-268
  GI50: > 100 µM (inactive)
SF-295
  GI50: > 100 µM (inactive)
SF-539
  GI50: > 100 µM (inactive)
SK-MEL-28
  GI50: > 100 µM (inactive)
SK-MEL-2
  GI50: > 100 µM (inactive)
SK-MEL-5
  GI50: > 100 µM (inactive)
SK-OV-3
  GI50: > 100 µM (inactive)
SN12C
  GI50: > 100 µM (inactive)
SNB-75
  GI50: > 100 µM (inactive)
SR
  GI50: > 100 µM (inactive)
SW-620
  GI50: > 100 µM (inactive)
T47D
  GI50: > 100 µM (inactive)
TK-10
  GI50: > 100 µM (inactive)
U-251
  GI50: > 100 µM (inactive)
UACC-257
  GI50: > 100 µM (inactive)
UACC-62
  GI50: > 100 µM (inactive)
UO-31
  GI50: > 100 µM (inactive)
